Measurements reported in US12544365B2, “Pharmaceutical combination of an EP4 antagonist and immune checkpoint inhibitors for the treatment of tumours” (ROTTAPHARM BIOTECH S.R.L., priority 2019, dated 2026).

Legend:
[1] = test system: Th-17 cells differentiation of human CD4+ naïve T cells; assay: Ex vivo human Th-17 cells differentiation (flow cytometry); assay type: cell-based; conditions: 0.03 μM PGE2, 48 hours
Description: Peripheral blood mononuclear cells (PBMC) were isolated from healthy volunteers using density gradient centrifugation and CD4+naïve T cells were enriched from PBMCs using human naïve CD4+ T cell isolation kit (Miltenyi Biotech). Isolated CD4+ T cells were maintained in RPMI medium and differentiated toward Th-17 cells by stimulation with IL-12 and IL-2, both 5 ng/ml in combination with 1.5 ng/ml of antibodies anti CD3 and anti CD28 and 0.03 μM PGE2+Compound 1 at concentration of 0.01-0.03-0.1-0.3 μM for 48 hours.
At the end of incubation time cells were stained with fluorescence-conjugated antibodies specific for CD4, CCR6, CD45, CD25 and IL-17 (all from BD Bioscience). Finally, the number of Th-17 cells was determined by flow cytometry and the events were measured by Fluorescence Activated Cell Sorter (FACS; BD Bioscience) and analyzed with dedicated software.

PK experiments in rat = conditions: in vivo, po
[2] = molecular target: human recombinant EP4 receptor (Homo sapiens, UniProt P35408); assay: [3H]-PGE2 specific binding on human recombinant EP4 receptor (HEK293 membranes)
Chain of human recombinant EP4 receptor (P35408 whole entry): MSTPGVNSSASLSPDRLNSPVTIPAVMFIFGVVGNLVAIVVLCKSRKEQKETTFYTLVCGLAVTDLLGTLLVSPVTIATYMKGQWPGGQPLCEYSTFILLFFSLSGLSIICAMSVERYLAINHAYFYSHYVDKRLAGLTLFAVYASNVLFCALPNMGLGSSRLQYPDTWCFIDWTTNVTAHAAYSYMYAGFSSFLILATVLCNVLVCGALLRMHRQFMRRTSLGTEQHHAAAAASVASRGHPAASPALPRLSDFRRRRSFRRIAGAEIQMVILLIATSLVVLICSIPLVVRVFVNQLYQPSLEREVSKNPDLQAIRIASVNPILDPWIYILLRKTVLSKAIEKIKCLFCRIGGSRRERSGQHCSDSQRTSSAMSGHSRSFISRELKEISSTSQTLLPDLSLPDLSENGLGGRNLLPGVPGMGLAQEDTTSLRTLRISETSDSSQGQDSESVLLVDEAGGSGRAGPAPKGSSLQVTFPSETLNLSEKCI
Description: Cell membranes were prepared from HEK293 cell line (Human Embryonic Kidney 293) stably overexpressing human recombinant EP4 receptor. Cells grow adherent in DMEM with Glutamax | containing 10% FBS at 37° C. with 5% CO2. For membranes preparation, culture medium was aspirated from 150 cm^2 flasks in which cells were seeded. Cell monolayers were washed with 10 ml of hypotonic lysis buffer (TRIS 5 mM+EDTA 5 mM-pH 7.4), then cells were detached and lysed with the same buffer and by mechanical scraping. Lysates were centrifuged at 40000×g at 4° C. for 22 min. Pellets were stored at −80° C. until the use.
[3H]-Prostaglandin E2 ([3H]-PGE2) binding assays were performed in 10 mM MES-KOH buffer pH6, containing 10 mM MgCl2 and 1 mM CaCl2. Ten microgram of protein from membrane fractions are incubated in a total volume of 0.1 ml with 1 nM [3H]-PGE2. In order to determine the total binding or the non specific binding, 1% DMSO or 1 μM PGE2 were added to reaction mixtures, respectively. The specific binding represented >85% of total binding. In competition curves, the diluent was substituted by the test compounds (8 concentration spanning at least 2 order of magnitude; points in duplicates). In an independent series of experiments, competition curves of the same compounds were performed in the presence of Bovine Serum Albumin 0.5%. Incubation was carried out in a 96 multiwell plate for 90 min at room temperature, prior to separation of the bound and free radioligand by rapid filtration on glass fiber filters (Unifilter GFB96, PerkinElmer Inc) pre-soaked in 0.3% polyethyleneimine. Filters were washed with ice cold buffer pH 7.4 (50 mM HEPES, NaCl 500 mM, BSA 0.1%), dried for 30 minutes at 30° C. and then 0.1 ml of MICROSCINT-20 (PerkinElmer Inc) were added. The residual [3H]-PGE2 binding was determined by solid scintillation counter (TopCount, PerkinElmer Inc), after at least 1 hour of stabilization. Results of the competition curves were expressed as IC50 and the corresponding Ki were calculated according to the Chang-Prousoff equation. Finally the Ki value was transformed in pKi (the negative log of Ki).

[3] = test system: TNF-α gene expression in human THP-1 macrophages; assay: TNF-α gene expression in THP-1 cells differentiated to macrophages (LPS + PGE2), RT-PCR; assay type: cell-based; conditions: LPS 10 ng/ml + PGE2 10 nM, 3 hours, concentration as low as 0.1 μM
Description: The human monocyte cell line THP-1, obtained from the ATCC, was grown according to the instructions provided. THP-1 cells were differentiated to macrophages with 100 nM phorbol 12-myristate 13-acetate (PMA) (Sigma Aldrich) for 4 days. Macrophages were then stimulated with lipopolysaccharide (LPS) (Sigma Aldrich) 10 ng/ml and PGE2 0.01 μM for 3 hours. Total RNA was purified using the ABI Prism 6100 Nucleic Acid PrepStation (Applied Biosystems, Foster City, CA, USA) and retrotranscribed using the High-Capacity cDNA Reverse Transcription Kit (Thermo Fisher Scientific). RT-PCR analysis was performed using the Applied Biosystems 7500 Fast Real-Time PCR System using specific TaqMan assays (number Hs00174128_m1; Thermo Fisher Scientific) and, as an endogenous control, the 18S Pre-Developed TaqMan® Assay (Thermo Fisher Scientific). The data analysis, with normalisation on 18S amplified values, was done following Thermo Fisher Scientific's specific instructions for gene expression relative quantification. All individual data are the result of at least three different analyses for each sample.
To evaluate the Compound 1 potential in counteracting the PGE2 induced inhibition of TNF-α gene expression in human macrophages, THP-1 cells were differentiated to macrophages and subsequently treated with LPS 10 ng/ml plus PGE2 10 nM+Compound 1 in the 0.01 μM to 10 μM concentrations range for 3 hours.

SMILES: O=C([O-])c1ccc(C2(NC(=O)[C@H]3CC4(CCN3Cc3ccc(C(F)(F)F)cc3)CC4)CC2)cc1.[Na+] [Compound 1, sodium (R)-4-(1-(6-(4-(trifluoromethyl)benzyl)-6-azaspiro[2.5]octane-5-carboxamido)cyclopropyl)benzoate]
- concentration at which plateau of maximal effect on Th-17 cells is reached [1]: above 0.1 μM
- number of naïve Th-17 cells ([1]; 0.01-0.3 μM): marked decrease
- Tmax (PK experiments in rat): 1 h
- Ki ([2]; BSA 0.5%): 25.1 nM
- Ki ([2]; None (absence of BSA)): 12.6 nM
- TNF-α gene expression vs cells treated with PGE2+LPS only [3]: two to three fold increase
